Test results: patent publication US9663478B2, “Benzotriazine oxides as drugs targeting Mycobacterium tuberculosis” (priority 2011, dated 2017)
Values after ≈ are worked out from the molar mass of the structure shown. Read-outs that look alike come from different tables or passages of the source.

What was measured:
Mtb H37Rv [1] = test: TB MIC - SRI, resazurin-based microplate assay; format: cell-based, Mycobacterium tuberculosis; conditions: Mycobacterium tuberculosis, H37RV
Vero cells = conditions: African green monkey, 72 h
NRP Mtb H37Rv cells = test: Low-oxygen recovery assay (LORA) MIC; format: cell-based, Mycobacterium tuberculosis; conditions: Tables P1, P2; non-replicating M. tuberculosis
Mtb H37Rv [2] = test: TB MIC - ITR (UIC), Institute for Tuberculosis Research; format: cell-based, Mycobacterium tuberculosis; conditions: Tables P1, P2
[3] = Tables P1-P3, read-out: TB MIC - SRI

| SMILES | MIC (Mtb H37Rv [1]; [3]) | VERO Tox-SRI (Vero cells) | LORA MIC (NRP Mtb H37Rv cells) | TB MIC - UIC (Mtb H37Rv [2]) | MIC (Mtb H37Rv [1]; read-out: Activity against H37Rv, Table P4) | MIC (Mtb H37Rv [1]; read-out: TB MIC - SRI, Tables P1-P3) |
| --- | --- | --- | --- | --- | --- | --- |
| CCC(COC)Nc1n[n+]([O-])c2cc(F)ccc2[n+]1[O-] (stereo not shown) [SRI-012278] | 5 µg/mL (≈ 17.7 µM) | 6.3 | 1.87 µg/mL | 2 µg/mL |  |  |
| CCC(CC)Nc1n[n+]([O-])c2cc(F)ccc2[n+]1[O-] [SRI-012279] | 1.25 µg/mL (≈ 4.69 µM) | 4.4 | 0.71 µg/mL | 0.49 µg/mL |  |  |
| CC(C)CC(C)Nc1n[n+]([O-])c2cc(F)ccc2[n+]1[O-] (stereo not shown) [SRI-012281] | 1.25 µg/mL (≈ 4.46 µM) | <2.5 | 0.4 µg/mL | 0.55 µg/mL |  |  |
| [O-][n+]1nc(NC2CCCCCC2)[n+]([O-])c2ccc(F)cc21 [SRI-012282] | 0.625 µg/mL (≈ 2.14 µM) | <2.5 | 0.21 µg/mL | 0.39 µg/mL |  |  |
| CC(Nc1n[n+]([O-])c2cc(F)ccc2[n+]1[O-])C(C)(C)C (stereo not shown) [SRI-012283] | 1.25 µg/mL (≈ 4.46 µM) | <2.5 | 0.42 µg/mL | 0.5 µg/mL |  |  |
| CCNc1n[n+]([O-])c2cc(F)ccc2[n+]1[O-] [SRI-012284] | 0.625 µg/mL (≈ 2.79 µM) | 4.6 | 0.75 µg/mL | 0.35 µg/mL |  |  |
| CCNc1n[n+]([O-])c2cc3c(cc2[n+]1[O-])CCC3 [SRI-012286] |  | 36.0 | 0.83 µg/mL | 0.95 µg/mL | 1.25 µg/mL (≈ 5.08 µM) | 1.25 µg/mL (≈ 5.08 µM) |
| [O-][n+]1nc(NC2CC2)[n+]([O-])c2ccc(Cl)cc21 [SRI-012301] | 0.625 µg/mL (≈ 2.47 µM) | 1.36 | 0.22 µg/mL | 0.21 µg/mL |  |  |
| [O-][n+]1nc(NC2CCC2)[n+]([O-])c2ccc(Cl)cc21 [SRI-012302] | 0.156 µg/mL (≈ 0.585 µM) | 1.6 | < 0.125 µg/mL | < 0.125 µg/mL |  |  |
| [O-][n+]1nc(NC2CCCCC2)[n+]([O-])c2ccc(Cl)cc21 [SRI-012303] | 0.625 µg/mL (≈ 2.12 µM) | 2.62 | 0.63 µg/mL | 0.94 µg/mL |  |  |
| CCC(COC)Nc1n[n+]([O-])c2cc(Cl)ccc2[n+]1[O-] (stereo not shown) [SRI-012304] | 1.25 µg/mL (≈ 4.18 µM) | 2.6 | 0.78 µg/mL | 1.46 µg/mL |  |  |
| CCNc1n[n+]([O-])c2cc(Cl)ccc2[n+]1[O-] [SRI-012306] | 1.25 µg/mL (≈ 5.19 µM) | 2.65 | 0.41 µg/mL | < 0.125 µg/mL |  |  |
